Read-outs that look alike come from different tables or passages of the source. Values belong to the molecule of their own block, whether it stands above or below them.
Key:
[1] = test system: cerebral ischemia; conditions: oral administration to experimental animals; cited from earlier work
[2] = pH measurement of 2 g of substance in 75 ml H2O
[3] = assay type: physicochemical; conditions: for dissolution upon visual inspection: 2 g in 75 ml distilled water, stirred mechanically ~5 min
[4] = test system: cognitive function; conditions: cited from earlier work
[5] = test system: age-associated memory impairment; conditions: humans; cited from earlier work

Molecule: CN(CC(=O)O)C(=N)N [Creatine, N-methyl-N-guanyl Glycine]
ischemic brain infarction [1]: remarkable reduction

Molecule: CN(CC(=O)O)C(=N)N.O [creatine monohydrate]
pH of 2 g in 75 ml H2O [2]: ~7.00
dissolution upon visual inspection ([3]; Experiment 1): did not dissolve very well
dissolution after lowering pH by adding pyroglutamic acid ([3]; Experiment 1, creatine monohydrate 2 g in 75 ml water, some pyroglutamic acid added): dissolved
dissolution after 30 min of stirring ([3]; Experiment 2, 2 g in 75 ml distilled H2O, 30 min stirring): still a considerable amount of solids that did not dissolve

Molecule: (2-(1-methylguanidino)acetyl)oxonium (S)-5-oxopyrrolidine-2-carboxylate [creatine pyroglutamate]
pH of 2 g in 75 ml H2O ([2]; listed as product obtained in Experiment 2): 3.09
pH of 2 g in 75 ml H2O ([2]; listed as unwashed product): ~3.00
dissolution upon visual inspection ([3]; Experiment 1): dissolved completely
time to complete dissolution of crystals ([3]; Experiment 2, 2 g in 75 ml distilled H2O, stirred): ≤ 5 min

pH of 2 g in 75 ml H2O [2]: ~2.00
Molecule: O=C1CC[C@@H](C(=O)O)N1 [pyroglutamic acid, L-pyroglutamic acid]
cognitive function in rats [4]: improve
age-associated memory impairment [5]: improves

From US7479560B2, “Creatine pyroglutamic acid salts and methods for their production and use in individuals” (New Cell Formulations, Ltd., priority 2006, dated 2009)
